Data published in ChEMBL document CHEMBL4118268, “Identification, Characterization, and Optimization of 2,8-Disubstituted-1,5-naphthyridines as Novel Plasmodium falciparum Phosphatidylinositol-4-kinase Inhibitors with in Vivo Efficacy in a Humanized Mouse Model of Malaria” (J Med Chem, 2018).

Assays:
[1] = Metabolic stability in human liver microsomes assessed as parent compound remaining at 0.1 uM in presence of NADPH after 30 mins by LC-MS/MS analysis; format: ADME, microsome; conditions: read-out: Stability
[2] = Metabolic stability in mouse liver microsomes assessed as parent compound remaining at 0.1 uM in presence of NADPH after 30 mins by LC-MS/MS analysis; format: ADME, microsome; conditions: read-out: Stability
[3] = Metabolic stability in rat liver microsomes assessed as parent compound remaining at 0.1 uM in presence of NADPH after 30 mins by LC-MS/MS analysis; format: ADME, microsome; conditions: read-out: Stability
[4] = Octanol-phosphate buffer distribution coefficient, log D of the compound at pH 7.4 measured after 1 hr by HPLC method; format: physicochemical
[5] = Apparent half life in Balb/c mouse at 2 mg/kg, iv by LC-MS analysis; format: ADME, organism-based; conditions: in vivo, read-out: t1/2(app) (converted)
[6] = Cmax in Balb/c mouse pretreated with CYP inhibitor ABT at 20 mg/kg, po by LC-MS analysis; format: ADME, organism-based; set-up: dose 20 mg/kg, route oral; conditions: in vivo
Mus musculus [7] = assay: AUC (0 to infinity) in Balb/c mouse at 20 mg/kg, po by LC-MS analysis; format: ADME, organism-based; set-up: dose 20 mg/kg, route oral, time infinity; conditions: in vivo
Mus musculus [8] = assay: AUC (0 to infinity) in Balb/c mouse pretreated with CYP inhibitor ABT at 20 mg/kg, po by LC-MS analysis; format: ADME, organism-based; set-up: dose 20 mg/kg, route oral, time infinity; conditions: in vivo
[9] = Tmax in Balb/c mouse at 20 mg/kg, po by LC-MS analysis; format: ADME, organism-based; conditions: in vivo
[10] = Tmax in Balb/c mouse pretreated with CYP inhibitor ABT at 20 mg/kg, po by LC-MS analysis; format: ADME, organism-based; conditions: in vivo
[11] = Cmax in Balb/c mouse at 20 mg/kg, po by LC-MS analysis; format: ADME, organism-based; set-up: dose 20 mg/kg, route oral; conditions: in vivo
[12] = Apparent half life in Balb/c mouse pretreated with CYP inhibitor ABT at 20 mg/kg, po by LC-MS analysis; format: ADME, organism-based; conditions: in vivo, read-out: t1/2(app) (converted)
[13] = Apparent half life in Balb/c mouse at 20 mg/kg, po by LC-MS analysis; format: ADME, organism-based; conditions: in vivo, read-out: t1/2(app) (converted)
Mus musculus [14] = assay: AUC (0 to infinity) in Balb/c mouse at 2 mg/kg, iv by LC-MS analysis; format: ADME, organism-based; set-up: dose 2 mg/kg, route intravenous, time infinity; conditions: in vivo
[15] = Cmax in humanized NOD-scid IL2Rgamma null mouse infected with Plasmodium falciparum 3D70087/N9 at 50 mg/kg, po up to 96 hrs post dose by LC-MS/MS analysis; format: ADME, organism-based; set-up: dose 50 mg/kg, route oral; conditions: in vivo
[16] = Cmax in Balb/c mouse pretreated with CYP inhibitor ABT at 5 mg/kg, po by LC-MS analysis; format: ADME, organism-based; set-up: dose 5 mg/kg, route oral; conditions: in vivo
[17] = Volume of distribution in Balb/c mouse at […], iv by LC-MS analysis; format: ADME, organism-based; conditions: in vivo
[18] = Tmax in Balb/c mouse pretreated with CYP inhibitor ABT at 5 mg/kg, po by LC-MS analysis; format: ADME, organism-based; conditions: in vivo
[19] = Tmax in humanized NOD-scid IL2Rgamma null mouse infected with Plasmodium falciparum 3D70087/N9 at […], po up to 96 hrs post dose by LC-MS/MS analysis; format: ADME, organism-based; conditions: in vivo
[20] = Cmax in humanized NOD-scid IL2Rgamma null mouse infected with Plasmodium falciparum 3D70087/N9 at […], po up to 96 hrs post dose by LC-MS/MS analysis; format: ADME, organism-based; set-up: dose 2.5 mg/kg, route oral; conditions: in vivo
[21] = Cmax in humanized NOD-scid IL2Rgamma null mouse infected with Plasmodium falciparum 3D70087/N9 at 5 mg/kg, po up to 96 hrs post dose by LC-MS/MS analysis; format: ADME, organism-based; set-up: dose 5 mg/kg, route oral; conditions: in vivo
[22] = Cmax in humanized NOD-scid IL2Rgamma null mouse infected with Plasmodium falciparum 3D70087/N9 at 10 mg/kg, po up to 96 hrs post dose by LC-MS/MS analysis; format: ADME, organism-based; set-up: dose 10 mg/kg, route oral; conditions: in vivo
Mus musculus [23] = assay: AUC in humanized NOD-scid IL2Rgamma null mouse infected with Plasmodium falciparum 3D70087/N9 at 5 mg/kg, po up to 24 hrs post dose by LC-MS/MS analysis; format: ADME, organism-based; set-up: time < 24 hr, dose 5 mg/kg, route oral; conditions: in vivo
[24] = Tmax in humanized NOD-scid IL2Rgamma null mouse infected with Plasmodium falciparum 3D70087/N9 at 5 mg/kg, po up to 96 hrs post dose by LC-MS/MS analysis; format: ADME, organism-based; conditions: in vivo
Mus musculus [25] = assay: AUC (0 to infinity) in Balb/c mouse at […], iv by LC-MS analysis; format: ADME, organism-based; set-up: dose 1.5 mg/kg, time infinity, route intravenous; conditions: in vivo
[26] = Tmax in humanized NOD-scid IL2Rgamma null mouse infected with Plasmodium falciparum 3D70087/N9 at 10 mg/kg, po up to 96 hrs post dose by LC-MS/MS analysis; format: ADME, organism-based; conditions: in vivo
Mus musculus [27] = assay: AUC in humanized NOD-scid IL2Rgamma null mouse infected with Plasmodium falciparum 3D70087/N9 at 50 mg/kg, po up to 24 hrs post dose by LC-MS/MS analysis; format: ADME, organism-based; set-up: time < 24 hr, dose 50 mg/kg, route oral; conditions: in vivo
Mus musculus [28] = assay: AUC in humanized NOD-scid IL2Rgamma null mouse infected with Plasmodium falciparum 3D70087/N9 at […], po up to 24 hrs post dose by LC-MS/MS analysis; format: ADME, organism-based; set-up: dose 2.5 mg/kg, time < 24 hr, route oral; conditions: in vivo
[29] = Tmax in humanized NOD-scid IL2Rgamma null mouse infected with Plasmodium falciparum 3D70087/N9 at 50 mg/kg, po up to 96 hrs post dose by LC-MS/MS analysis; format: ADME, organism-based; conditions: in vivo
[30] = In vivo drug metabolism in Balb/c mouse assessed as naphthyridine core or pyridine substituent oxidation metabolite formation in plasma at 5 mg/kg, po or […], iv by LC-MS analysis; format: ADME, organism-based
[31] = Apparent half life in Balb/c mouse pretreated with CYP inhibitor ABT at 5 mg/kg, po by LC-MS analysis; format: ADME, organism-based; conditions: in vivo, read-out: t1/2(app) (converted)
Mus musculus [32] = assay: AUC in humanized NOD-scid IL2Rgamma null mouse infected with Plasmodium falciparum 3D70087/N9 at 10 mg/kg, po up to 24 hrs post dose by LC-MS/MS analysis; format: ADME, organism-based; set-up: time < 24 hr, dose 10 mg/kg, route oral; conditions: in vivo

Structure (SMILES)	remaining at 0.5 h, 0.1 µM [1]	remaining at 0.5 h, 0.1 µM [2]	remaining at 0.5 h, 0.1 µM [3]	other results
O=S(=O)(CCN1CCCC1)c1cccc(-c2ccc3nccc(-c4ccncc4)c3n2)c1	56%	60%	66%	
CS(=O)(=O)Nc1cccc(-c2ccc3nccc(-c4ccncc4)c3n2)c1	59%	50%	49%	
CS(=O)(=O)Nc1ccc2nccc(-c3ccncc3)c2n1	96%	95%	94%	
O=S(=O)(NCCN1CCOCC1)c1cccc(-c2ccc3nccc(-c4ccncc4)c3n2)c1	< 1%	< 1%	< 1%	
O=S(=O)(c1cccc(-c2ccc3nccc(-c4ccncc4)c3n2)c1)N1CC[C@H](O)C1	17%	12%	10%	
O=S(=O)(CCO)c1cccc(-c2ccc3nccc(-c4ccncc4)c3n2)c1	95%	52%	59%	
NS(=O)(=O)c1ccc(-c2ccc3nccc(-c4ccncc4)c3n2)cc1	76%	13%	36%	
Nc1cccc(-c2ccc3nccc(-c4ccncc4)c3n2)c1	78%	54%	61%	
C[C@@H]1CN(S(=O)(=O)c2cccc(-c3ccc4nccc(-c5ccncc5)c4n3)c2)C[C@H](C)N1	34%	33%	36%	
O=S(=O)(c1cccc(-c2ccc3nccc(-c4ccncc4)c3n2)c1)N1CCC(O)CC1	5%	7%	11%	
O=S(=O)(NCc1ccccc1)c1cccc(-c2ccc3nccc(-c4ccncc4)c3n2)c1	42%	2%	6%	logD at 1 h [4]: 1.8 to 4.2
NS(=O)(=O)c1cccc(-c2ccc3nccc(-c4ccncc4F)c3n2)c1				logD at 1 h [4]: 1.8 to 4.2
O=S(=O)(NCC1COC1)c1cccc(-c2ccc3nccc(-c4ccncc4)c3n2)c1	2%	19%	8%	
NS(=O)(=O)c1cccc(-c2ccc3nccc(-c4ccncc4)c3n2)c1				half-life [5]: 2.5 h; Cmax [6]: 500 nM; AUC (Mus musculus [7]): 523 µM/min; AUC (Mus musculus [8]): 243 µM/min; Tmax [9]: 0.5 h; Tmax [10]: 0.5 to 1 h; Cmax [11]: 5000 nM; half-life [12]: 3.2 h; half-life [13]: 1.6 h; AUC (Mus musculus [14]): 111 µM/min
NS(=O)(=O)c1cccc(-c2ccc3nccc(-c4ccnc(C(F)(F)F)c4)c3n2)c1	95%	97%	96%	Cmax [15]: 6360 nM; Cmax [16]: 2800 nM; Vd [17]: 7 L/kg; logD at 1 h [4]: 1.8 to 4.2; Tmax [18]: 1 h; Tmax at 96 h [19]: 4 h; Cmax at 96 h [20]: 750 nM; Cmax [21]: 1470 nM; Cmax [22]: 2230 nM; AUC (Mus musculus [23]): 1198 µM/min; Tmax [24]: 4 h; AUC (Mus musculus [25]): 350 µM/min; Tmax [26]: 4 h; AUC (Mus musculus [27]): 5591 µM/min; AUC (Mus musculus [28]): 658 µM/min; Tmax [29]: 2.5 h; Drug metabolism [30]: Metabolite_Detected; half-life [31]: 33 h; AUC (Mus musculus [32]): 2035 µM/min
O=S(=O)(NCCN1CCCC1)c1cccc(-c2ccc3nccc(-c4ccnc(C(F)(F)F)c4)c3n2)c1	14%	8%	16%	
NS(=O)(=O)c1cncc(-c2ccc3nccc(-c4cn[nH]c4)c3n2)c1		2%		
